ChEMBL document CHEMBL5137064, “Therapeutic Potential and Activity Modulation of the Protein Lysine Deacylase Sirtuin 5” (J Med Chem, 2022)
Blank lines part the entries; values can stand above or below the compound they belong to. *1 amine or outer side, *2 acyl side, *3 side chain or, on linkers, in order; H or OH if unused. Where a SMILES comes first, the peptide text is derived from it. Bridges are numbered along the chain shown (N, C = ends). Side-chain parts run from the residue outwards. [ ]: non-standard residue; d: D form. The star is where a group is joined. ξ: configuration not given here. X1 = O=C(O)CCNC(=S)NCCCC[C@H](N[*:1])C(=O)[*:2]; Succinyl(3ξ-Ph) = O=C(O)C(CC(=O)*)c1ccccc1; Heptanedioyl = O=C(CCCCCC(=O)[*:2])[*:1]; βAsp = O=C(O)[C@H](CC(=O)[*:2])N[*:1]; X2 = CC(CC(=O)*)(C(=O)O)c1ccccc1; X4 = CC(=O)SC(CC(=O)*)C(=O)O; X3 = CCCCC(CC(=O)*)C(=O)O; Cbz = O=C(OCc1ccccc1)*; Bz = O=C(c1ccccc1)*

Columns and labels:
[1] = target: T1, NAD-dependent protein deacetylase sirtuin-2 (Homo sapiens) (UniProt Q8IXJ6); test: Inhibition of SIRT2 (unknown origin) at 50 uM relative to control
T1 sequence (whole entry): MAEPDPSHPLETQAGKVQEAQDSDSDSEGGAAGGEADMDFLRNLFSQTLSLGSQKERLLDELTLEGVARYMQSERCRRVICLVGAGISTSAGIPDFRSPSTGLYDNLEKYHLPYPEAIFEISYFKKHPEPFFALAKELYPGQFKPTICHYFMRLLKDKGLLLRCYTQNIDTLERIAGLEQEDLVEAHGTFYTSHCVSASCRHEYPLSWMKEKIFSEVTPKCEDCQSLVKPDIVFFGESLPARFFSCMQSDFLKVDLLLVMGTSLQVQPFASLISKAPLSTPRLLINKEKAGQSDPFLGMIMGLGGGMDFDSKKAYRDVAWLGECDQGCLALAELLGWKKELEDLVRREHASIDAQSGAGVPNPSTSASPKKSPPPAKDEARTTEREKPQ

[2] = target: T2, NAD-dependent protein deacylase sirtuin-5, mitochondrial (Homo sapiens, UniProt Q9NXA8); test: Binding affinity to SIRT5 (unknown origin) assessed as desuccinylation activity by measuring inhibition constant
Target sequence in this assay (Q9NXA8 whole entry): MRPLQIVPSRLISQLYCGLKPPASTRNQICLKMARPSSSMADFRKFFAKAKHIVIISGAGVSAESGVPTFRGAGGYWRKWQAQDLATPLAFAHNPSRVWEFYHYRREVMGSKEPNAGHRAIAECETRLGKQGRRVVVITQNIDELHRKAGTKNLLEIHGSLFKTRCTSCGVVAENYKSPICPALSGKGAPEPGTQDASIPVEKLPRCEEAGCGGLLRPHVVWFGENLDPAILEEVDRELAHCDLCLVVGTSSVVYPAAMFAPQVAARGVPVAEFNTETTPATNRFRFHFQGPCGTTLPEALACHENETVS

[3] = target: T3, NAD-dependent protein deacetylase sirtuin-1 (Homo sapiens) (UniProt Q96EB6); test: Inhibition of SIRT1 (unknown origin) at 50 uM relative to control
T3 sequence (whole entry): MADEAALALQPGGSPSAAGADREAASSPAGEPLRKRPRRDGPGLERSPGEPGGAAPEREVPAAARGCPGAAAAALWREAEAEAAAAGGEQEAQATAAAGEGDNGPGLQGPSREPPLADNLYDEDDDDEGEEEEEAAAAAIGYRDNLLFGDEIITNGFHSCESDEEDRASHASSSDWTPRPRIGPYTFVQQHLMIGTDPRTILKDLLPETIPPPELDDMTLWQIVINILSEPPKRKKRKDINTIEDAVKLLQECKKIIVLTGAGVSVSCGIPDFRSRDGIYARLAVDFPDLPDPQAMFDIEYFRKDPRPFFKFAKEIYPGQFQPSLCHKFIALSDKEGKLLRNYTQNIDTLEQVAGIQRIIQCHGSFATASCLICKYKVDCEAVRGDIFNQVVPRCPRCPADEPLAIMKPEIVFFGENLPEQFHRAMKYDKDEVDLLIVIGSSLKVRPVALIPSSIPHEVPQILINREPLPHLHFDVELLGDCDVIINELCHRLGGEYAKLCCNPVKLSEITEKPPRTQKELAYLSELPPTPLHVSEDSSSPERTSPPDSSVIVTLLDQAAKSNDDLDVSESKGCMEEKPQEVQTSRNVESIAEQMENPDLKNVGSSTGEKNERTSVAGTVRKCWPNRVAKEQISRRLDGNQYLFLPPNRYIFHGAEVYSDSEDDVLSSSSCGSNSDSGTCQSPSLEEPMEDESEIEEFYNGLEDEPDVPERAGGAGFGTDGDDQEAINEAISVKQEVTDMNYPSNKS

[4] = target: T4, NAD-dependent protein deacetylase sirtuin-3, mitochondrial (Homo sapiens) (UniProt Q9NTG7); test: Inhibition of SIRT3 (unknown origin) at 50 uM relative to control
T4 sequence (whole entry): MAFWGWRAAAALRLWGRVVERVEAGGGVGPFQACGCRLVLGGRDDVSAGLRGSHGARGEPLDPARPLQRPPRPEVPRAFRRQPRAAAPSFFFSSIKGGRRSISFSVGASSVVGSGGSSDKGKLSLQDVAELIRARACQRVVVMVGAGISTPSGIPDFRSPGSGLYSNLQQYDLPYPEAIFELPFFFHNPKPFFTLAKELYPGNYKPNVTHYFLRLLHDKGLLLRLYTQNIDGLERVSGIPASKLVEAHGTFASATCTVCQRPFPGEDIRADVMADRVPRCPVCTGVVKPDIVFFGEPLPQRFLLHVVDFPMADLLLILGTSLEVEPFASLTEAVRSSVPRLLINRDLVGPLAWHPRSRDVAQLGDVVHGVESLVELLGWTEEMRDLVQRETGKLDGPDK

[5] = target: T4, NAD-dependent protein deacetylase sirtuin-3, mitochondrial (Homo sapiens); test: Inhibition of SIRT3 (unknown origin) at 10 uM relative to control
[6] = target: T2, NAD-dependent protein deacylase sirtuin-5, mitochondrial; test: Inhibition of SIRT5 deglutarylase activity (unknown origin)
Target sequence in this assay (Q9NXA8 whole entry): as the sequence (Q9NXA8 whole entry) above

[7] = target: T2, NAD-dependent protein deacylase sirtuin-5, mitochondrial; test: Binding affinity to SIRT5 (unknown origin) assessed as desuccinylation activity by measuring dissociation constant
Target sequence in this assay (Q9NXA8 whole entry): as the sequence (Q9NXA8 whole entry) above

[8] = target: T2, NAD-dependent protein deacylase sirtuin-5, mitochondrial; test: Inhibition of human recombinant SIRT5 using fluorogenic Benzyl-Lys(Succinyl)-AMC as substrate incubated for 2 hrs measured by fluoroscence based microplate reader method
Target sequence in this assay (Q9NXA8 whole entry): as the sequence (Q9NXA8 whole entry) above

[9] = target: T2, NAD-dependent protein deacylase sirtuin-5, mitochondrial; test: Inhibition of SIRT5 (unknown origin) at 50 uM incubated for 15 mins by fluorometric assay relative to control
Target sequence in this assay (Q9NXA8 37-310 limits assumed): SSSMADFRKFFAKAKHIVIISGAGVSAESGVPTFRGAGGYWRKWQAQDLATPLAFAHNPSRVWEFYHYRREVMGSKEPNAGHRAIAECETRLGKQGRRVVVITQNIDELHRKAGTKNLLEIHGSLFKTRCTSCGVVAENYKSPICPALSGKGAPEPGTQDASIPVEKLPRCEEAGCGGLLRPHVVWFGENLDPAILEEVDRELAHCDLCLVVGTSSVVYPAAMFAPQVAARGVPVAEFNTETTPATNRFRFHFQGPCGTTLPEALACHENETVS

[10] = target: T4, NAD-dependent protein deacetylase sirtuin-3, mitochondrial (Homo sapiens); test: Inhibition of SIRT3 (unknown origin) at 50 uM incubated for 15 mins by fluorometric assay relative to control
[11] = target: T2, NAD-dependent protein deacylase sirtuin-5, mitochondrial; test: Inhibition of SIRT5 activity (unknown origin)
Target sequence in this assay (Q9NXA8 whole entry): as the sequence (Q9NXA8 whole entry) above

[12] = target: T2, NAD-dependent protein deacylase sirtuin-5, mitochondrial; test: Inhibition of SIRT5 desuccinylase activity (unknown origin) using succinyl-lysine as substrate
Target sequence in this assay (Q9NXA8 whole entry): as above

[13] = target: NAD-dependent protein deacylase sirtuin-6 (Homo sapiens, UniProt Q8N6T7); test: Inhibition of His6-tagged SIRT6 (unknown origin) desuccinylase activity incubated for 12 mins by HPLC based assay
Sequence of NAD-dependent protein deacylase sirtuin-6 (Q8N6T7 whole entry): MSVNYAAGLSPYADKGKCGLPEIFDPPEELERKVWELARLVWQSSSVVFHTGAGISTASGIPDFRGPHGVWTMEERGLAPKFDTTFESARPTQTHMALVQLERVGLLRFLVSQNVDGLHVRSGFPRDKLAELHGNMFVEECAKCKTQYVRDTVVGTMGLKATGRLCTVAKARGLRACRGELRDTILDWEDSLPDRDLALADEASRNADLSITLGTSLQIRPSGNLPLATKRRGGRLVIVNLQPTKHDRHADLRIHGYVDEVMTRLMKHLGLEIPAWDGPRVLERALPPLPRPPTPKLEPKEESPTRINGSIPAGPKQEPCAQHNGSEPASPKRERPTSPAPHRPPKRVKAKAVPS

[14] = target: T5, NAD-dependent protein deacetylase sirtuin-2 (Homo sapiens, UniProt Q8IXJ6); test: Inhibition of His6-tagged SIRT2 (unknown origin) desuccinylase activity incubated for 12 mins by HPLC based assay
T5 sequence (Q8IXJ6 whole entry): T1 sequence (whole entry)

[15] = target: T6, NAD-dependent protein deacetylase sirtuin-3, mitochondrial (Homo sapiens, UniProt Q9NTG7); test: Inhibition of His6-tagged SIRT3 (unknown origin) desuccinylase activity incubated for 10 mins by HPLC based assay
T6 sequence (Q9NTG7 whole entry): T4 sequence (whole entry)

[16] = target: T2, NAD-dependent protein deacylase sirtuin-5, mitochondrial; test: Inhibition of GST-tagged SIRT5 desuccinylase activity (unknown origin) incubated for 5 mins by HPLC based assay
[17] = target: T7, NAD-dependent protein deacetylase sirtuin-1 (Homo sapiens, UniProt Q96EB6); test: Inhibition of His6-tagged SIRT1 (unknown origin) desuccinylase activity incubated for 10 mins by HPLC based assay
T7 sequence (Q96EB6 whole entry): T3 sequence (whole entry)

SMILES: CC(C)C[C@H](NC(=O)[C@@H](NC(=O)CNC(=O)c1ccccc1)C(C)C)C(=O)N[C@@H](CCCCNC(=O)CC(C(=O)O)c1ccccc1)C(=O)N[C@@H](CCC(=O)O)C(=O)N[C@@H](Cc1ccc(O)cc1)C(=O)NCC(=O)N[C@H](C(N)=O)C(C)C (stereo not given in full) (Bz-GVLK(Succinyl(3ξ-Ph))EYGV-NH2)
- Ki [2]: 100 µM
- Kd [7]: 8.2 µM

SMILES: Cc1ccc(NC(=O)/C(C#N)=C/c2ccc(-c3ccc(C(=O)O)cc3C)o2)cc1C
- IC50 [8]: 57.4 µM

SMILES: Cc1cc(C)cc(NC(=O)/C(C#N)=C/c2ccc(-c3ccc(C(=O)O)cc3)o2)c1
- IC50 [8]: 37.9 µM

SMILES: O=C(NC1CCC1)[C@H](Cc1c[nH]c2ccccc12)NC(=O)[C@H](CCCCNC(=S)NCc1nnn[nH]1)NS(=O)(=O)c1cccc(F)c1
- IC50 [11]: 5.1 µM

SMILES: N=C(N)NCCC[C@@H]1NC(=O)CCCCC(=O)NCCCC[C@@H](C(N)=O)NC(=O)[C@H](CCCCNC(=S)NCCC(=O)O)NC1=O
- IC50 [12]: 6.5 µM

SMILES: O=C(NC1CCC1)[C@H](Cc1c[nH]c2ccccc12)NC(=O)[C@H](CCCCNC(=S)NCCc1noc(=S)[nH]1)NS(=O)(=O)c1cccc(F)c1
- IC50 [6]: 900 nM

Next, values leading:

- inhibition [1]: 4%
- Ki [2]: 4.3 µM
- inhibition [3]: < 1%
- inhibition [4]: < 1%
SMILES: CC(C)C[C@H](NC(=O)[C@@H](NC(=O)CNC(=O)c1ccccc1)C(C)C)C(=O)N[C@@H](CCCCNC(=O)CC(C)(C(=O)O)c1ccccc1)C(=O)N[C@@H](CCC(=O)O)C(=O)N[C@@H](Cc1ccc(O)cc1)C(=O)NCC(=O)N[C@H](C(N)=O)C(C)C (stereo not given in full) (Bz-GVLK(X2)EYGV-NH2)

- inhibition [5]: 40%
- IC50 [6]: 290 nM
SMILES: O=C(NC1CCC1)[C@H](Cc1c[nH]c2ccccc12)NC(=O)[C@H](CCCCNC(=S)NCCc1cc(O)on1)NS(=O)(=O)c1cccc(F)c1

- Ki [2]: 38.1 µM
- Kd [7]: 5.78 µM
SMILES: CC(C)C[C@H](NC(=O)[C@@H](NC(=O)CNC(=O)c1ccccc1)C(C)C)C(=O)N[C@@H](CCCCNC(=O)C[C@H](NC(=O)OCc1ccccc1)C(=O)O)C(=O)N[C@@H](CCC(=O)O)C(=O)N[C@@H](Cc1ccc(O)cc1)C(=O)NCC(=O)N[C@H](C(N)=O)C(C)C (Bz-GVLK([βAsp-Cbz])EYGV-NH2)

- IC50 [8]: 22.7 µM
SMILES: Cc1ccc(NC(=O)/C(C#N)=C/c2ccc(-c3ccc(C(=O)O)cc3)o2)cc1C

- Ki [2]: 10.6 µM
SMILES: CC(=O)SC(CC(=O)NCCCC[C@H](NC(=O)[C@H](CC(C)C)NC(=O)[C@@H](NC(=O)CNC(=O)c1ccccc1)C(C)C)C(=O)N[C@@H](CCC(=O)O)C(=O)N[C@@H](Cc1ccc(O)cc1)C(=O)NCC(=O)N[C@H](C(N)=O)C(C)C)C(=O)O (stereo not given in full) (Bz-GVLK(X4)EYGV-NH2)

- Ki [2]: 17.2 µM
SMILES: CCCCC(CC(=O)NCCCC[C@H](NC(=O)[C@H](CC(C)C)NC(=O)[C@@H](NC(=O)CNC(=O)c1ccccc1)C(C)C)C(=O)N[C@@H](CCC(=O)O)C(=O)N[C@@H](Cc1ccc(O)cc1)C(=O)NCC(=O)N[C@H](C(N)=O)C(C)C)C(=O)O (stereo not given in full) (Bz-GVLK(X3)EYGV-NH2)

- inhibition [9]: 42%
- inhibition [10]: 8%
SMILES: O=C(CC[C@H](NC(=O)OCc1ccccc1)C(=O)O)NCCCC[C@H](NC(=O)OCc1ccccc1)C(=O)Nc1ccccc1

- IC50 [13]: > 1 mM
- IC50 [14]: > 1 mM
- IC50 [15]: > 1 mM
- IC50 [16]: 7.5 µM
- IC50 [17]: > 1 mM
SMILES: CC(=O)N[C@H]1CCCCNC(=O)CCCCCC(=O)NCCCC[C@@H](C(=O)N[C@H](C(N)=O)[C@@H](C)O)NC(=O)[C@H](CCCCNC(=S)NCCC(=O)O)NC(=O)[C@H](CCCNC(=N)N)NC1=O (Ac-KR[X1]KT-NH2; linker 1-4 via Heptanedioyl)
